Data reported in US20090209633A1, “Treatment of Pain With Resiniferatoxin and Related Analogs” (priority 2006, published 2009).
Where “and” joins values, the source holds several entries; their conditions need not be identical. Equal entries are not always repeated.

Tests used:
[1] = biological target: T1, cloned TRPV1 (Rattus norvegicus, UniProt O35433); experiment: Single-channel currents in excised (outside-out) patches from oocytes expressing cloned TRPV1; format: cell-based; conditions: for single-channel conductance / single-channel current amplitude: excised patches, cloned TRPV1; for Po: outside-out/excised patches, RTX, capsaicin 100 nM
T1 construct: expressed in transfected cells; host or cells: Xenopus laevis oocytes injected with TRPV1 cRNA
T1 sequence (O35433 whole entry): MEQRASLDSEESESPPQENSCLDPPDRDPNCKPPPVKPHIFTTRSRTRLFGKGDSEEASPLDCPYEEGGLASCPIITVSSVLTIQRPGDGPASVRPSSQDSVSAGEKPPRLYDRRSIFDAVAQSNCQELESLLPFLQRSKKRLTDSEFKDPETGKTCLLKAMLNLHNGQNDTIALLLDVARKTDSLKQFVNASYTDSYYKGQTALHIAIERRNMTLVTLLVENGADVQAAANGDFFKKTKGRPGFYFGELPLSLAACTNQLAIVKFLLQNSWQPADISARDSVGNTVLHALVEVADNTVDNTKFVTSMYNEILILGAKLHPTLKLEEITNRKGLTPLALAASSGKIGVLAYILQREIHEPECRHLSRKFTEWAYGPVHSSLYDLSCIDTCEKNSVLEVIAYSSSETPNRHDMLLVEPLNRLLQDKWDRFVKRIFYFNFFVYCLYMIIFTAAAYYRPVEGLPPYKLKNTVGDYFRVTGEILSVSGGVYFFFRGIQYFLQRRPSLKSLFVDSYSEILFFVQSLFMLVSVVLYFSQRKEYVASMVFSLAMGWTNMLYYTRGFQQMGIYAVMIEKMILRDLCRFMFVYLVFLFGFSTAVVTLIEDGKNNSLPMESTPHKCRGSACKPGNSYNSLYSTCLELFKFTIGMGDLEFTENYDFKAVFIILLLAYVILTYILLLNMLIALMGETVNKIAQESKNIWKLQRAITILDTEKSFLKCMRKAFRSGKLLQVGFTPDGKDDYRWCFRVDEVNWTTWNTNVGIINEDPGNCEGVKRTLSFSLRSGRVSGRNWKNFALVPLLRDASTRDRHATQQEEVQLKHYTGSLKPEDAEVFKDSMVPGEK
Experimental: (§1) Oocytes were obtained by an abdominal incision after anaesthetizing the frog by immersion in a 0.05% solution of 3-aminobenzoic acid ethyl ester (MS222). Animals were killed by a subcutaneous injection of a 2% solution of MS222 according to NIH guidelines. One day after separating the oocytes from the follicular layer, 50-70 nl TRPV1 cRNA was injected using a Drummond Nanoject (Drummond Scientific Co., Broomall, Pa., USA). Oocytes were used for recording from 3 days after the injection. Double-electrode voltage clamp was performed using a Warner amplifier (Warner Instruments, Hamden, Conn., USA). Data were digitized and stored on videotape or directly stored on the computer using a LabView interface (National Instruments, Austin, Tex., USA). Experiments were performed at 21-23° C. Oocytes were placed in a Perspex chamber superfused (5-10 ml min^−1) with Ca^2+-free Ringer solution containing (mM): NaCl 100, KCl 2.5 and Hepes 5; pH adjusted to 7.35 with NaOH. Current-voltage relationships were measured using 1-s voltage ramps from −80 to +80 mV.
For single-channel recording in cell-attached patches from DRG neurons, the bath solution contained (mM): potassium gluconate 140, KCl 2.5, MgCl2 1, Hepes 5 and EGTA 1.5; pH adjusted to 7.35 with NaOH. The patch pipettes were made from glass capillaries (Drummond, Microcaps), coated with Sylgard (Dow Corning, Midland, Mich., USA). For cell-attached patches, the patch pipettes were filled with a solution that contained (mM): sodium gluconate 140, NaCl 10, MgCl2 1, Hepes 5 and EGTA 1.5; pH adjusted to 7.35 with NaOH. While recording from cell-attached patches, in order to avoid differences in the driving force because of the differences in the membrane potential, the external NaCl was replaced by an equal amount of KCl in order to nullify the membrane potential. For outside-out patches, the pipette solution contained (mM): sodium gluconate 90, NaCl 10, BAPTA 10, Hepes 10, K2ATP2 and GTP 0.25; pH adjusted to 7.35 with NaOH. The bath solution contained (mM): sodium gluconate 100, KCl 2.5, MgCl2 1, Hepes 5 and EGTA 1.5; pH adjusted to 7.35 with NaOH. All the experiments were performed at room temperature (21-23° C.). Agar-bridge electrodes were used to avoid changes in junction potential. The currents were recorded using a WPC 100 (Warner Instruments) or Axopatch 2B (Axon Instruments, Union City, Calif., USA) patch-clamp amplifier. Data were filtered at 10 kHz (Axopatch 2B), digitized (VR-10B, Instrutech Corp.), and stored on videotapes. For the analysis of amplitude and open probability (Po), the data were filtered at 2.5 kHz (−3 db frequency with an 8-pole low-pass Bessel filter, Warner Instruments) and digitized at 5 kHz. For dwell-time analysis, the data were filtered at 10 kHz and digitized at 50 kHz.
Single-channel analysis. Single-channel current amplitude and Po were estimated from all-point current amplitude histograms (Channel 2 software kindly provided by Michael Smith, Australian National University, Can berra, Australia) and fitted to Gaussian densities (Origin, OriginLab Corp., Northampton, Mass., USA). For current-voltage relationships, the amplitudes were determined by fitting a Gaussian curve to an all-point histogram. Po was determined using unedited segments of data, which were typically 1-5 min long. For multiple channel patches, the mean Po was measured as nPo, where n is the number of channels in the patch. Chord conductance was measured at +60 or −60 mV. Slope conductance was determined by linear fits to current-voltage data between +20 and +100 mV or −20 and −100 mV.
Next we recorded single-channel currents from the cloned TRPV1 in excised patches. […] (Premkumar et al. 2002.)
Next we recorded single-channel currents using outside-out patches from oocytes expressing TRPV1.

[2] = biological target: T2, rat TRPV1 (Rattus norvegicus, UniProt O35433); experiment: Whole-cell currents in Xenopus laevis oocytes expressing TRPV1 (double-electrode voltage clamp); format: cell-based; conditions: capsaicin 300 nM; for activation time (10-90% of the rising phase): holding −60 mV, protons pH 5.5, RTX 10 nM; for reversal potential of agonist-induced whole-cell current: ramp −80 to +80 mV in 1 s; for reversal/deactivation of current on agonist removal: −60 mV, pH 5.5, NADA 10 μM, washout >15 min for RTX
T2 construct: expressed in transfected cells; host or cells: Xenopus laevis oocytes injected with TRPV1 cRNA
T2 sequence (O35433 whole entry): as above
Experimental: Rat TRPV1 dcRNA. Cloned rat TRPV1 was obtained from the Julius Lab at the University of California San Francisco. TRPV1 cRNA was obtained using standard techniques known to those of skill in the art.
Electrophysiology. Whole-cell and single-channel currents were recorded from rat DRG neurons in culture and from Xenopus laevis oocytes injected with rat TRPV1 cRNA. Animals were cared for according to the standards of the National Institutes of Health (NIH). All animal use protocols were approved by Southern Illinois University School of Medicine Animal Care Committee.
as §1
This example tests the activation of whole-cell currents in oocytes by RTX. Whole-cell currents were recorded from oocytes heterologously expressing TRPV1. […] Agonist-induced currents are shown after subtracting the leak current in the absence of the agonist. […] In order to quantify this, we calculated the ratio of outward and inward currents. […] PKC activation increases sensitivity as well as TRPV1 translocation. […] (Szallasi et al. 1990b; Caterina et al. 1997; Marshall et al. 2003.)

[3] = oocytes expressing TRPV1, +60 mV

**Q.** What does the source list for COc1cc(CNC(=O)CCCC/C=C/C(C)C)ccc1O [capsaicin]?
**A.** single-channel conductance ([1]; +60 mV): 95.3±1.7 pS; single-channel current amplitude ([1]; +60 mV): 5.71±0.1 pA; Po ([1]; +60 mV): 0.4±0.03; single-channel conductance ([1]; −60 mV): 41.8±1.3 pS; single-channel current amplitude ([1]; −60 mV): 2.52±0.08 pA; Po ([1]; −60 mV): 0.14±0.01; activation time (10-90% of the rising phase) [2]: 23.9±1.5 s; reversal potential of agonist-induced whole-cell current ([2]; RTX 10 nM): −12.3±0.42 mV; reversal/deactivation of current on agonist removal ([2]; RTX 10 nM): could be reversed readily

**Q.** Which results are given for C=C(C)[C@]12C[C@@H](C)[C@@]34O[C@](Cc5ccccc5)(O[C@@H]1[C@@H]3C=C(COC(=O)Cc1ccc(O)c(OC)c1)C[C@]1(O)C(=O)C(C)=C[C@@H]41)O2 [RTX, resiniferatoxin]?
**A.** single-channel conductance ([1]; +60 mV): 103.3±0.83 pS; single-channel current amplitude ([1]; +60 mV): 6.19±0.05 pA; Po ([1]; +60 mV): 0.88±0.03; current amplitudes of multiple conductance states [1, 3]: 3.5 pA and 5.3 pA and 6.9 pA; single-channel conductance of multiple conductance states [1, 3]: 58 pS and 88 pS and 115 pS; single-channel conductance ([1]; −60 mV): 43±2.8 pS; single-channel current amplitude ([1]; −60 mV): 2.59±0.17 pA; Po ([1]; −60 mV): 0.83±0.05; activation time (10-90% of the rising phase) [2]: 61.4±4.4 s; reversal potential of agonist-induced whole-cell current ([2]; RTX 10 nM): −10.4±0.53 mV; ratio of outward and inward currents (rectification) ([2]; ramp −80 to +80 mV, RTX 10 nM): 2.35±0.97; reversal/deactivation of current on agonist removal ([2]; RTX 10 nM): did not deactivate even after a prolonged washout
